Measured values from patent US20230263915A1, “RADIOLABELED COMPOUNDS” (King's College London, priority 2020, published 2023).

Assays:
[1] = Chemoselectivity study: oxidation by other ROS, radioHPLC; conditions: in vitro; for reactivity to other biologically relevant ROS: qualitative
Procedure: The different oxidants were prepared in PBS (900 μL). The ^18F-labelled compound was formulated as 0.5-2 MBq in 100 μL ethanol and added to the oxidant PBS solution. The final reaction mixture contains the ^18F-labelled compound (0.5-2 MBq) in the presence of 100 μM oxidant in PBS with 10% ethanol (final volume 1000 μL). The reaction was kept at room temperature for 5 min, after which it was injected into the HPLC for analysis. • Superoxide (O2^−): The ^18F-labelled compound in ethanol (100 μL) was added to PBS (900 μL) and the resulting solution was then added to a vial containing solid KO2 (1 mg), to make up a reaction mixture with 10 mM O2^−. • Hydrogen peroxide (H202): H2O2 (10 mM stock solution, 10 μL) was diluted in PBS (890 μL) followed by addition of the ^18F-labelled compound in ethanol (100 μL), to a final concentration of 100 μM. • Hydroxyl radical (⋅OH): hydroxyl radicals were generated in situ by reacting hydrogen peroxide (H202, 100 μM) with iron II ([…]). FeSO2.7H2O (5 mM stock, 200 μL) was diluted in PBS (690 μL) and H2O2 (10 mM stock, 10 μL) was added, followed by the ^18F-labelled compound in 100 μL ethanol. • Iron (II) sulfate heptahydrate (Fe^2+) (control): FeSO2.7H2O (5 mM stock, 200 μL) was diluted to a final concentration of 1000 μM in PBS (700 μL), and the ^18F-labelled compound in 100 μL ethanol was added after. • tert-butyl hydroperoxide (TBHP): TBHP (10 mM stock, 10 μL) was diluted in PBS (890 μL) followed by addition of the ^18F-labelled compound in ethanol, to a final concentration of 100 μM. • Tert-butoxy radical (t-BuO⋅): t-butoxy radicals were generated in situ by reacting tert-butyl hydroperoxide (TBHP, 100 μM) with Fe^2+ (1000 μM). FeSO2.7H2O (5 mM stock, 200 μL) was diluted in PBS (690 μL) and TBHP (10 mM stock, 1 μL) was added, followed by the ^18F-labelled compound in ethanol. • Peroxynitrite (ONOO^−): peroxynitrite was generated in situ by spontaneous decomposition of 3-morpholinosydnomine (SIN-1) in solution. […]

[2] = Stability tests monitored by HPLC in ethanol / PBS; assay type: physicochemical
Procedure: (§1) Stability tests monitored by HPLC indicate that ^18F-FM074 is stable in both pure ethanol and 1% ethanol in PBS in the presence of ascorbic acid (0.01 mg/mL) for 4 h (not tested for longer). When incubated in rat serum at 37° C., 90% of ^18F-FM074 was intact in 1 hour (FIG. 3(A)). The stability of ^18F-FM108 in PBS was also determined and it was stable in 30 minutes (FIG. 3(B)).

[3] = LogD measurement, shake-flask partition between 1-octanol and PBS; assay type: physicochemical; conditions: 1-octanol / PBS pH 7.4
Procedure: The lipophilicity of ^18F-FM074 and ^18F-FM074-Ox was determined by measuring their logD values using a variation of the conventional shake-flask method, namely a conventional partition method between 1-octanol and phosphate buffered saline (PBS), pH 7.4. The 1-octanol was saturated with PBS before use. The radiotracer (1 μL) in ethanol was added to a mixture of PBS (200 μL) and 1-octanol (200 μL) in a 1.5 mL Eppendorf vial (n =6). The vial was sealed and shaken, then centrifuged at 3000 g for 10 min. A 100 μL aliquot from each layer was drawn was added to separate tubes. The radioactivity content of each fraction was measured in a gamma counter. The LogDoct/PBS as calculated as follows: log [(cpm in the 1-octanol layer-cpm 1-octanol blank)/(cpm in the PBS layer-cpm pbs blank)].

[4] = Chemoselectivity study: oxidation by superoxide (KO2), radioHPLC; conditions: for oxidation by superoxide: 1 mg/mL KO2 in solution, 5 min, room temperature; for oxidation by superoxide in the presence of ascorbic acid: KO2 plus ascorbic acid 1 mg/mL
Procedure: The different oxidants were prepared in PBS (900 μL). The ^18F-labelled compound was formulated as 0.5-2 MBq in 100 μL ethanol and added to the oxidant PBS solution. The final reaction mixture contains the ^18F-labelled compound (0.5-2 MBq) in the presence of 100 μM oxidant in PBS with 10% ethanol (final volume 1000 μL). The reaction was kept at room temperature for 5 min, after which it was injected into the HPLC for analysis. • Superoxide (O2^−): The ^18F-labelled compound in ethanol (100 μL) was added to PBS (900 μL) and the resulting solution was then added to a vial containing solid KO2 (1 mg), to make up a reaction mixture with 10 mM O2^−. • Hydrogen peroxide (H202): H2O2 (10 mM stock solution, 10 μL) was diluted in PBS (890 μL) followed by addition of the ^18F-labelled compound in ethanol (100 μL), to a final concentration of 100 μM. • Hydroxyl radical (⋅OH): hydroxyl radicals were generated in situ by reacting hydrogen peroxide (H202, 100 μM) with iron II ([…]). FeSO2.7H2O (5 mM stock, 200 μL) was diluted in PBS (690 μL) and H2O2 (10 mM stock, 10 μL) was added, followed by the ^18F-labelled compound in 100 μL ethanol. • Iron (II) sulfate heptahydrate (Fe^2+) (control): FeSO2.7H2O (5 mM stock, 200 μL) was diluted to a final concentration of 1000 μM in PBS (700 μL), and the ^18F-labelled compound in 100 μL ethanol was added after. • tert-butyl hydroperoxide (TBHP): TBHP (10 mM stock, 10 μL) was diluted in PBS (890 μL) followed by addition of the ^18F-labelled compound in ethanol, to a final concentration of 100 μM. • Tert-butoxy radical (t-BuO⋅): t-butoxy radicals were generated in situ by reacting tert-butyl hydroperoxide (TBHP, 100 μM) with Fe^2+ (1000 μM). FeSO2.7H2O (5 mM stock, 200 μL) was diluted in PBS (690 μL) and TBHP (10 mM stock, 1 μL) was added, followed by the ^18F-labelled compound in ethanol. • Peroxynitrite (ONOO^−): peroxynitrite was generated in situ by spontaneous decomposition of 3-morpholinosydnomine (SIN-1) in solution. SIN-1 (5 mM stock, 1 μL) was diluted in PBS (989 μL) containing the ^18F-labelled compound in ethanol (10 μL), to give a final concentration of […] ONOO^− in solution. • Nitric oxide (NO): NO was generated in situ by the NO-donor drug diethylamine NONOate (DEA/NO). A 33 mM stock solution of DEA/NO in 10 mM NaOH was used. 1 μL was diluted in PBS (990 μL) containing the ^18F-labelled compound in ethanol (10 μL), to give a final concentration of 33 μM DEA/NO in solution. The reaction was allowed to take place for 32 min at room temperature (˜20° C.) to allow DEA/NO to decompose into diethylamine and nitric oxide radical (NO) at a concentration of 50 μM, before HPLC analysis.

[5] = Biodistribution in healthy Wistar rats; assay type: in vivo; conditions: for uptake by major organs (brain, heart, lung, spleen): i.v., 1, 5 and 30 min post-injection
Procedure: Male Wistar rats (290-355 g) were placed in a warm box at 37° C. before being transferred to an anaesthesia induction box under an O2 flow rate of 1 L/min with isofluorane levels of 5%. The anaesthetised rat was transferred to an anaesthesia mask with an O2 flow rate of 1 L/min with isofluorane levels of 2.5%. The radiotracer (0.5-2.2 MBq, 200-600 μL in maximum 5% EtOH in PBS) was injected intravenously via a cannula inserted into a tail vein. The animals were sacrificed by cervical dislocation at 1, 5, and 30 min post-injection (n=3/group). The heart was immediately removed and rinsed with saline to washout the blood. Organs of interest as well as blood and urine were collected and the radioactivity measured in a gamma counter.

[6] = PET imaging study in healthy C57BL/6J mice; assay type: in vivo
Procedure: Wild type C57BL/6J mice (male, 26±2 g) were injected intravenously via the tail vein with [^18F]FM074 (1.2±1.1 MBq) in PBS containing sodium ascorbate (0.01 mg/mL). The animals were sacrificed either 3 min post-injection or after a 60 min PET (n=3/group). Organs and tissues of interest were harvested, weighed and the radioactivity measured in a gamma counter. Organ uptake was calculated as percentage injected dose per gram of tissue mass (% ID/g). Data are reported as mean±SD.
The radiotracer is excreted by both renal and hepatobilliary routes in less than 1 hour (FIG. 5).

[7] = tested on: oxidative stress in heart (left ventricle); assay: PET/CT imaging in rat model of Doxorubicin-induced cardiotoxicity; assay type: in vivo, rats
Procedure: Wistar rats were randomly divided into two groups and were subjected to the implantation of an Alzet Osmotic minipump containing either Doxorubicin (30 mg/kg) in saline (n=6) or saline only (n=4) as control. The minipump releases the drug at a constant rate over seven days, after which PET/CT imaging was performed.
(§2) Male Wistar rats (280-300 g) were used in all experiments. Subcutaneous 7-day osmotic pumps (Alzet), containing either Doxorubicin (Cambridge Bioscience, 30 mg/kg cumulative dose) or vehicle (sterile 0.9% NaCl), were inserted into rats under 2% isoflurane in 100% oxygen.
Doxorubicin (30 mg/kg) or only vehicle (saline) was delivered to the animals using the osmotic minipump for seven days, after which PET/CT imaging was performed.
Animals were placed in a warm box at 37° C. before being transferred to an anaesthesia induction box under an 02 flow rate of 1 L/min with isofluorane levels of 5%. The anaesthetised rats were transferred to the PET bed and kept under anaesthesia with an O2 flow rate of 1 L/min with isofluorane levels of 2.5%. The radiotracer (0.5-2.2 MBq, 200-600 μL in maximum 5% EtOH in PBS) was injected intravenously via a cannula inserted into a tail vein. The injection start time coincided with the start of the PET acquisition in order to obtain dynamic tracer uptake information. The PET scans were acquired for 30 min, followed by a CT scan, after which the animals were sacrificed and organs harvested as for the biodistribution protocol. The PET data was analysed using VivoQuant.
Subsequently, both groups were subjected to 30 min PET/CT scans with chest cavity in the field of view on day 7 of the treatment. (FIG. 8) The PET images were analysed into three segments: from 0 to 3 min, 3 to 10 min, and 10 to 30 min post-injection of ^18F-FM074.

[8] = Stability in rat serum at 37° C. determined by radioHPLC; assay type: in vitro ADME; conditions: 1 hour
Procedure: as §1

[9] = tested on: xanthine oxidase/xanthine system; assay: Oxidation by superoxide generated by the xanthine oxidase/xanthine system; assay type: biochemical; conditions: xanthine (1 mM) and catalase in PBS, 37° C., 5 min
[10] = tested on: left ventricle function; assay: Echocardiography (cardiac ultrasound) in Doxorubicin minipump rats; assay type: in vivo
Procedure: In order to assess cardiac function all rats were subjected to a cardiac ultrasound (Vevo 770™, VisualSonics) one day prior to osmotic pump implantation and a second ultrasound one day prior to PET/CT imaging. Rats were anaesthetized with 2% isoflurane in 100% oxygen and maintained at 37° C. via a homoeothermic platform and rectal thermometer. High-resolution parasternal left ventricle (LV) long axis M-mode and B-mode images were obtained using a RMV710B transducer. Images were analysed offline using Vevo Software to determine LV function.
as §2

[11] = healthy C57BL/6 mice, i.v., PET

Structure (SMILES): COc1ccc(C2Sc3ccccc3N2CCC[18F])cc1 (stereo not drawn) [^18F-FM108, [^18F]3-(3-fluoropropyl)-2-(4-methoxyphenyl)-2,3-dihydrobenzo[d]thiazole]
- reactivity to other biologically relevant ROS [1]: little or no reactivity
- stability in PBS ([2]; PBS, 30 minutes (FIG. 3(B))): stable
- logD [3]: 0.83±0.12
- oxidation by superoxide [4]: 54±4%
- oxidation by superoxide in the presence of ascorbic acid [4]: 38%

Structure (SMILES): [18F]CCCN1c2ccccc2SC1c1ccccc1 (stereo not drawn) [^18F-FM074, [^18F]3-(3-fluoropropyl)-2-phenyl-2,3-dihydrobenzo[d]thiazole]
- reactivity to other biologically relevant ROS [1]: little or no reactivity
- oxidation by other endogenous ROS ([1]; ⋅OH, H2O2, ⋅NO, ONOO^−): less than 10%
- clearance from the blood pool ([5]; 1 min post-injection): fast clearance
- time to clearance from major organs ([5]; hepatic and renal metabolism, excreted to small intestine and urine): under 30 min
- uptake by major organs (brain, heart, lung, spleen) [5]: rapid initial uptake
- uptake in bone and muscle ([5]; within 30 min): little uptake
- stability in 1% ethanol in PBS ([2]; 1% ethanol in PBS in the presence of ascorbic acid (0.01 mg/mL), for 4 h, HPLC): stable
- stability in pure ethanol ([2]; pure ethanol, for 4 h (not tested for longer), HPLC): stable
- non-specific background retention ([6]; healthy C57BL/6 mice, heart and brain, PET): no non-specific background retention
- blood clearance [6, 11]: fast blood clearance
- time to excretion by renal and hepatobilliary routes [6, 11]: less than 1 hour
- tissue penetration [6, 11]: excellent tissue penetration
- uptake by heart and brain [6, 11]: rapidly taken up
- bone uptake (defluorination in vivo) ([6]; mice, after 1 hour): minimal
- logD [3]: 1.00±0.08
- ratio of standard uptake values LV to blood, Doxorubicin-treated vs control rats ([7]; 3-10 min post-injection, day 7 of Doxorubicin 30 mg/kg minipump): significantly (p<0.05) higher
- liver uptake ([7]; PET, Doxorubicin model rats, no significant difference between treated and control): high uptake
- heart uptake ex vivo after the PET/CT scan, treated vs control ([7]; ex vivo, after 30 min scan): no significant difference
- washout rate from the LV, Doxorubicin treated vs control ([7]; time-activity curves, FIG. 10): two-fold slower
- intact tracer in rat serum [8]: 90%
- oxidation by superoxide [4]: 58±8%
- oxidation by superoxide in the presence of ascorbic acid [4]: 31±5%
- oxidised tracer observed in radioHPLC chromatogram [9]: 53%

Structure (SMILES): COc1cccc2c1C(=O)c1c(O)c3c(c(O)c1C2=O)C[C@@](O)(C(=O)CO)C[C@@H]3O[C@H]1C[C@H](N)[C@H](O)[C@H](C)O1 [Doxorubicin]
- reduction of left ventricle ejection fraction vs baseline ([10]; 30 mg/kg via 7-day osmotic minipump, day 6 compared to day 0): 15%
- left ventricle ejection fraction, Doxorubicin treated vs control groups ([10]; ultrasound, FIG. 7): no significant difference

Structure (SMILES): [18F]CCC[n+]1c(-c2ccccc2)sc2ccccc21.[Cl-] [^18F-FM074-Ox, [^18F]-(3-fluoropropyl)-2-phenylbenzo[d]thiazol-3-ium chloride]
- clearance route ([5]; excreted through the urine): quickly cleared by the kidneys
- uptake by major organs (brain, heart, lung, spleen) [5]: significantly reduced uptake
- logD [3]: −1.00±0.04
